Laboratory results taken from patent US20190083420A1, “METHODS OF USING (2R, 6R)-HYDROXYN[…] (2S, 6S)-HYDROXYN[…] THE TREATMENT OF DEPRESSION, ANXIETY, ANHEDONIA, FATIGUE, SUICIDAL IDEATION, AND POST TRAUMATIC STRESS DISORDERS” (The Uinited States of America, as represented by the …, priority 2016, published 2019).
“Also recorded” adds a separate entry of the source.

Key:
[1] = Tissue distribution of ketamine and metabolites (plasma and brain levels)
Description: Mice were euthanized by a 30-sec exposure to 3% isoflurane and decapitated at 10, 30, 60, 240 or 480 minutes following drug administration. Trunk blood was collected in EDTA-containing tubes and centrifuged at 8000 rpm for 6 min (4° C.). Plasma was collected and stored at −80° C. until analysis. Whole brains were simultaneously collected, rinsed with phosphate-buffered saline, immediately frozen in dry ice and stored at −80° C. until analysis.
The concentrations of ketamine and its metabolites in plasma and brain tissue were determined by achiral liquid chromatography-tandem mass spectrometry. For plasma samples, the calibration standards for (R,S)-ketamine, (R,S)-norketamine, (2R,6R;2S,6S)-HNK and (R,S)-DHNK ranged from 10,000 ng/ml to 19 ng/ml. The quantification of (R,S)-ketamine, (R,S)-norketamine, (R,S)-DHNK, and the HNK stereoisomers was accomplished by calculating area ratios using D4-ketamine (10 μl of 10 μg/ml solution) as the internal standard. Whole brains were suspended in 990 μl of water:methanol (3:2, v/v), D4-ketamine (10 μl of 10 μg/ml) added and the resulting mixture homogenized on ice with a polytron homogenizer and centrifuged at 21,000×g for 30 min. The supernatant was collected and processed using 1 ml Oasis HLB solid phase extraction cartridges (Waters Corp., Waltham, Mass.). The cartridges were preconditioned with 1 ml of methanol, followed by 1 ml of water and then 1 ml ammonium acetate [10 mM, pH 9.5]. The supernatants were added to the cartridges, followed by 1 ml of water and the compounds were eluted with 1 ml of methanol. The eluent was transferred to an autosampler vial for analysis. QC standards for the analysis of (R,S)-ketamine, (R,S)-norketamine, (R,S)-DHNK and (2R,6R;2S,6S)-HNK ranged from 10,000 ng/ml to 19 ng/ml, and quantification was accomplished using D4-(R,S)-ketamine as the internal standard. QC standards were prepared daily by adding 10 μl of the appropriate standard solution and 10 μl of internal standard solution (100 ng/ml) to methanol.

[2] = test system: male CD-1 mice; assay: Forced-swim test (FST); assay type: in vivo; conditions: for antidepressant effect in the FST (immobility time): i.p.
Source text: (§1) Male CD-1 mice (8-10 weeks old, Charles River Laboratories, Mass., USA) were housed in groups of four-five per cage with a constant 12-hour light/dark cycle (lights on/off at 07:00/19:00). Food and water were available ad libitum. Mice acclimatized to the new environment for seven days prior to the start of the experiments. For the whole-cell NMDA current electrophysiological recordings, male Sprague-Dawley rats (housed three per cage; Charles River, Wilmington, Mass.) were used. EPSC recording were done from rats at postnatal day 24-25. All experimental procedures were approved by the University of Maryland, Baltimore Animal Care and Use Committee and were conducted in full accordance with the National Institutes of Health Guide for the Care and Use of Laboratory Animals.
Mice were tested in the FST 1 hour and/or 24 hours post-injection. During the FST, mice were subjected to a 6-min swim session in clear Plexiglass cylinders (30 cm height×20 cm diameter) filled with 15 cm of water (23±1° C.). The FST was performed in normal light conditions (800 Lux). Sessions were recorded using a digital video-camera. Immobility time, defined as passive floating with no additional activity other than that necessary to keep the animal's head above water, was scored for the last 4 min of the 6-min test by a trained observer blind to the treatment.
All drugs were dissolved in 0.9% saline, and administered intraperitoneally (i.p.) in a volume of 7.5 ml/kg of body mass. Corticosterone (4-pregnen-11β, 21-diol-3, 20-dione 21-hemisuccinate; Steraloids, Newport, R.I., USA) was dissolved in tap water. For the electrophysiology recordings, test drugs were diluted in artificial cerebrospinal fluid (AC SF).

[3] = test system: male CD-1 mice; assay: Learned helplessness (LH); assay type: in vivo; conditions: single injection, test 24 hours after administration
Source text: as §1
The LH paradigm consisted of three different phases, i.e., inescapable shock training, LH screening, and the LH test. For the inescapable shock portion of the test (Day 1), the animals were placed in one side of two-chambered shuttle boxes (34 cm height×37 cm width×18 cm depth; Coulbourn Instruments, PA, USA), with the door between the chambers closed. Following a five-min adaptation period, 120 inescapable foot-shocks (0.45 mA, 15 sec duration, randomized average inter-shock interval of 45 sec) were delivered through the grid floor. During the screening session (Day 2), the mice were placed in one of the two chambers of the apparatus for 5 min. A shock (0.45 mA) was then delivered, and the door between the two chambers was raised simultaneously. Crossing over into the second chamber terminated the shock. […] A total of 30 screening trials of escapable shocks were presented to each mouse with an average of 30 sec delay between each trial. Mice that developed helplessness behavior (>5 escape failures during the last 10 screening shocks) were administered with the respective drug 24 hours following screening (Day 3). During the LH test phase (Day 4), the animals were placed in the shuttle boxes and, after a 5-min adaptation period, a 0.45 mA shock was delivered concomitantly with door opening for the first five trials, followed by a 2-sec delay for the next 40 trials. Crossing over to the second chamber terminated the shock. […] A total of 45 trials of escapable shock were presented to each mouse with 30 sec inter-trial intervals. The number of escape failures was recorded for each mouse.

[4] = test system: mice; assay: Open field test (locomotor activity); assay type: in vivo; conditions: 1 hour after i.p. drug, Hydrochloride
Description: Mice were placed into individual open-field arenas (50 cm length×50 cm width×38 cm height; San Diego Instruments, San Diego, Calif., USA) for a 60-min habituation period. Mice were then injected with the respective drug and assessed for locomotor activity for another 60 min. Distance travelled was analyzed using TopScan v2.0 (CleverSys, Inc, Reston, Va., USA).

[5] = test system: Male C57BL/6J mice; assay: Chronic social defeat stress and social interaction/avoidance test; assay type: in vivo; conditions: single i.p. injection, re-test 24 hours following treatment
Description: Male C57BL/6J mice underwent a 10-day chronic social defeat stress paradigm. Briefly, experimental mice were introduced to the home cage (43 cm length×11 cm width×20 cm height) of a resident aggressive retired CD-1 breeder, prescreened for aggressive behaviors, for 10 min. Following this physical attack phase, mice were transferred and housed in the opposite side of the resident's cage divided by a Plexiglas perforated divider, in order to maintain continuous sensory contact. This process was repeated for 10 days. Experimental mice were introduced to a novel aggressive CD-1 mouse each day. On day 11, test mice were screened for susceptibility in a social interaction/avoidance choice test. The social interaction apparatus consisted of a rectangular three-chambered box (mouse conditioned-place preference chamber; Stoelting Co., Wood Dale, Ill., USA), see FIG. 7b) comprised of two equal sized end-chambers and a smaller central chamber. The social interaction/avoidance choice test consisted of two 5-min phases. During the habituation phase, mice explored the empty apparatus. During the test phase, two small wire cages (Galaxy Cup, Spectrum Diversified Designs, Inc., Streetsboro, Ohio, USA), one containing a “stranger” CD-1 mouse and the other one empty, were placed in the far corners of each chamber. The time spent interacting (nose within close proximity of the cage) with the “stranger” mouse versus the empty cage was analysed using TopScan video tracking software (CleverSys, Reston, Va.). Locomotor activity (total distance moved over 5 min) and number of total crosses into and out of the central chamber were also measured. The social interaction ratio was calculated by dividing the time spent interacting with the “stranger” by the time spent with the empty cage. Mice having a social interaction ratio higher than 1.0 were considered resilient and mice with a social interaction ratio lower than 1.0 were considered susceptible. On day 13 resilient and susceptible mice received an i.p. injection of either saline, (R,S)-KET (20 mg/kg; chosen based upon dose previously effective in C57BL/6J mice^31), MK-801 (0.1 mg/kg) or (2R,6R)-HNK (20 mg/kg). Mice were re-tested for social interaction/avoidance on […] (24 hours following treatment).

[6] = test system: mice; assay: Quantitative EEG, cortical oscillation power; assay type: in vivo; conditions: NBQX before (2R,6R)-HNK
Description: EEG experiments were performed according to Raver et al., (Neuropsychopharmacology, 38, 2338-2347 (2013)) with minor modifications. Mice were anesthetized with isoflurane and kept under anesthesia throughout the surgery. An F20-EET radio-telemetric transmitter (Data Sciences International, Minneapolis, Minn.) was implanted subcutaneously and its leads implanted over the dura above the frontal cortex (1.7 mm anterior to bregma) and the cerebellum (6.4 mm posterior to bregma). Animals recovered from surgery for 7 days before recordings.
Mice were singly housed and acclimated to the behavioral room for 24 hours prior to EEG recordings. EEGs were recorded using the Dataquest A.R.T. acquisition system (Data Sciences International) with frontal EEG recordings referenced to the cerebellum. Baseline EEG (10 min) recordings were followed by an i.p. injection of saline, ketamine (10 mg/kg) or (2R,6R)-HNK (10 mg/kg) and 40 min of post-injection recordings.
ECoGs were analyzed using custom-written MATLAB scripts (Version 2012a, Mathworks, Mass.) and the mtspecgramc routine in the Chronux Toolbox (http://chronux.org; Mitra and Bokil, 2008). Oscillation power in each bandwidth (δ=1-3 Hz; θ=4-7 Hz; α=8-12 Hz; β=13-29 Hz; γ=30-80 Hz) was computed in 10 min bins from spectrograms for each animal.

[7] = test system: mice; assay: Drug discrimination in ketamine-trained mice; assay type: in vivo; conditions: for ketamine-associated discriminative stimulus: mice trained to discriminate ketamine (10 mg/kg) from saline
Description: Mice were food restricted until they reached 85% of their initial body weight and were maintained at 85% throughout the duration of the experiment Animals were trained to lever press for food (20 mg sucrose pellets; TestDiet, St. Luis, Mo., USA) in standard two lever-operant conditioning chambers (Coulbourn Instruments, Whitehall, Pa., USA), under a fixed-ratio 5 of reinforcement (FR5) in daily 30-min sessions. When stable responding was succeeded over 3 consecutive sessions (average of 40 training sessions), mice were trained to discriminate ketamine (10 mg/kg) from saline (7.5 ml/kg) under a double alternation schedule (e.g., ketamine, ketamine, saline, saline). The subjects received either ketamine (10 mg/kg; i.p.) or saline (7.5 ml/kg) 15 minutes prior to the start of the 30-minute session. […] Drug discrimination test sessions were conducted when mice reached the following criteria: (1) first FR5 completed on the correct lever, and (2)≥85% correct lever responding over the entire session. During the test sessions mice were administered with saline (7.5 ml/kg), ketamine (10 mg/kg), phencyclidine (PCP; 3 mg/kg) or (2R,6R)-HNK (10 and 50 mg/kg). […] Recording of responses and pellet delivery were controlled and calculated by an automated computer system (Graphic State v3.1; Coulbourn Instruments, Whitehall, Pa., USA).

[8] = 24 hours post-injection (sustained)

NC1(c2ccccc2Cl)CCCCC1=O (racemic) [norketamine, (R,S)-norketamine]
brain levels following ketamine administration, female mice compared to males ([1]; brain): equivalent levels

Cl.[2H]C1([2H])CCCC(NC)(c2ccccc2Cl)C1=O (centres unmarked) [6,6-dideuteroketamine, 2-(2-Chlorophenyl)-6,6-Dideutero-2-(Methylamino)Cyclohexanone Hydrochloride]
antidepressant effect in the FST (immobility time) [2, 8]: did not induce antidepressant actions
antidepressant-like effect in learned helplessness (escape failures) [3]: did not induce antidepressant actions
locomotor activity in the open-field test [4]: did not change or NMDA-mediated hyperlocomotion
locomotor activity in the open-field test ([4]; listed as (R,S)-6,6-dideuteroketamine): equally potent in inducing a hyper-locomotor response
levels of ketamine in the brain ([1]; 6,6-dideuteroketamine compared to ketamine): without changes to the levels of ketamine in the brain

C[C@]12N[C@H](Cc3ccccc31)c1ccccc12 [MK-801]
antidepressant effect in the FST (immobility time) ([2]; 1 hour post-injection (acute)): antidepressant responses of both ketamine and MK-801 observed acutely
antidepressant effect in the FST (immobility time) [2, 8]: does not exert sustained (24-hour) antidepressant-like effects
reversal of social interaction deficits / social avoidance induced by chronic social defeat stress [5]: does not exert sustained (24-hour) antidepressant-like effects in the FST, or reverse social interaction deficits

NS(=O)(=O)c1cccc2c1c([N+](=O)[O-])cc1[nH]c(=O)c(=O)[nH]c12 [NBQX, 2,3-dihydroxy-6-nitro-7-sulfamoyl-benzo[f]quinoxaline-2,3-dione]
effect of NBQX pre-treatment on antidepressant-like actions in the FST ([2]; NBQX 10 minutes prior to (R,S)-ketamine or (2R,6R)-HNK, FST 1 hour or 24 hours later): prevented their antidepressant-like actions; also recorded: prevented both the 1- and 24-hour antidepressant effects of (2R,6R)-HNK
effect of NBQX given before the 24-hour FST on antidepressant effects ([2]; NBQX 30 min prior to the 24-hour FST (23.5 hours after ketamine or (2R,6R)-HNK)): prevented the antidepressant actions of both ketamine and (2R,6R)-HNK; also recorded: prevented the antidepressant effects of both (R,S)-KET and (2R,6R)-HNK
effect of NBQX pre-treatment on (2R,6R)-HNK-induced increases in gamma oscillations [6]: prevented (2R,6R)-HNK-induced increases in gamma power; also recorded: prevented (2R,6R)-HNK-induced increases of gamma oscillations
effect of NBQX pre-treatment on locomotor activity and alpha, beta, delta, theta oscillations [6]: did not change

CNCCCN1c2ccccc2CCc2ccccc21 [desipramine]
antidepressant effect in the FST (immobility time) ([2]; 1- and 24-hours post-injection, times not separated): only decreased immobility time 1 hour post-injection

c1ccc(C2(N3CCCCC3)CCCCC2)cc1 [phencyclidine, reference compound]
response rate of overall lever pressing per sec ([7]; drug discrimination paradigm): not changed
ketamine-associated discriminative stimulus [7]: did
ketamine-associated discriminative stimulus ([7]; listed as PCP): produced ketamine-like discriminative properties
